Measured values as given in patent publication US20110200556A1, “CHEMOPREVENTION OF HEAD AND NECK SQUAMOUS CELL CARCINOMAS” (THE UNITED STATES OF AMERICA, AS REPRESENTED BY TH E …, priority 2008, published 2011).

System: tongue and oral mucosa
Assay: Oral chemical carcinogenesis by 4NQO in the drinking water
Type: in vivo, C57B1/6 mice
Conditions: 4NQO 50 μg/ml in drinking water, week 12
Description: Water was changed weekly.
Methods: Animal studies were carried out according to NIH-approved protocols, in compliance with the Guide for the Care and Use of Laboratory Animals. Female C57B1/6 mice (Harlan Sprague-Dawley, National Cancer Institute at Frederick, Md., USA) 4-6 weeks old and weighing 18 to 20 g, were housed in appropriate sterile filter-capped cages, and fed and given water ad libitum. […] All animals underwent a bi-weekly full oral cavity examination under anesthesia (2-5% Isoflurane, Baxter, Deerfield, Ill., mixed with oxygen), and any observed pathological changes were documented. Animals were euthanized either on week 16 or week 22 for tissue retrieval. Complete autopsies were performed, and tissues were immediately collected and fixed in buffered zinc-formalin (Z-fix, Anatech, Mich.) at room temperature for 12 h. The tissues were then transferred to alcohol 70%, processed for paraffin embedding for histopathological diagnosis and further studies. […] Animals were monitored daily for general behavioral abnormalities, signs of toxicity, illness or discomfort. Animals were euthanized on week 22, and tissue retrieval was performed as described above.
Water was replaced weekly, and mice were monitored prior to each water change. […] All animals underwent a bi-weekly full oral cavity examination, and any pathological changes were documented. […]

O=[N+]([O-])c1cc[n+]([O-])c2ccccc12 [4NQO, 4-nitroquinoline-1 oxide]
mice that developed tumors in the tongue and other areas of the oral mucosa: around 50%
